Assay results as given in patent publication US20100113597A1, “PHARMACEUTICAL COMPOSITION FOR PREVENTION OF PROGRESS OF INTESTINAL CONSTRICTION ASSOCIATED WITH CROHN'S DISEASE” (priority 2007, published 2010).
Entries after “also recorded” stand apart in the source; their conditions may differ.

Experiments:
[1] = tested on: intestinal stricture associated with Crohn's disease; test: Effect of tranilast on progression of intestinal stricture in Crohn's disease patients, randomized against a group not given tranilast; type: in vivo, human (Crohn's disease patients)
Procedure: In 24 Crohn's disease patients with non-symptomatic intestinal stricture, the effect by tranilast on the progression of intestinal stricture associated with Crohn's disease was evaluated and compared between one group administered tranilast and another group not administered tranilast. There was no significant difference in backgrounds of the patients between the groups. The 24 patients were randomly divided into two groups consisting of a group administered tranilast (12 cases) and a group not administered tranilast (12 cases). […] The primary endpoint was a cumulative non-symptomatic stricture rate which was a rate of cases wherein severe symptomatic intestinal stricture requiring balloon dilatation or surgery occurred. In addition, the diameters of the stricture at the beginning of observation (basal diameter) and at the end of observation (final diameter) were measured. The secondary endpoint was a monthly progression rate of the stricture obtained from the rate of the final diameter relative to the basal diameter.

Crohn's disease = settings: single case; tranilast with enteral nutrients, low residue diet and mepenzolate bromide; cited from earlier work

Structure (SMILES): COc1ccc(C=CC(=O)Nc2ccccc2C(=O)O)cc1OC [tranilast, N-(3,4-dimethoxycinnamoyl)anthranilic acid]
- monthly progression rate of the stricture ([1]; from the final diameter relative to the basal diameter, −0.86% in the group not given tranilast): -0.48%
- average diameter of the stricture at the end of observation (final diameter) ([1]; group administered tranilast 200 mg three times daily, median observation 782 days): 5.60 mm
- average diameter of the stricture at the beginning of observation (basal diameter) ([1]; group administered tranilast, baseline): 6.40 mm
- cases withdrawn due to discontinued administration because of a reduced peripheral white blood cell count ([1]; of 12 cases, tranilast 200 mg three times daily): 1 case
- number of cases who required balloon dilatation due to severe intestinal stricture ([1]; tranilast 200 mg three times daily orally, 12 cases, 5 cases in the group not given tranilast): 1 case
- incidence of intestinal obstruction/stricture symptoms due to intestinal stricture (cumulative non-symptomatic stricture rate) ([1]; tranilast 600 mg per day versus the group not given tranilast, p=0.0034): significantly inhibited; also recorded: significantly low
- period maintained without exacerbation of symptoms of Crohn's disease (Crohn's disease): 3 years
